Test results from patent US20190321496A1, “AGENTS AND METHODS FOR THE DIAGNOSIS AND TREATMENT OF DISEASES ASSOCIATED WITH EXTRACELLULAR MATRIX TURNOVER” (Baker IDI Heart and Diabetes Institute Holdings Limited, priority 2016, published 2019).
*1 amine or outer side, *2 acyl side, *3 side chain or, on linkers, in order; H or OH if unused. Where no end group is shown, it is not given here. [ ]: non-standard residue; d: D form. The star is where a group is joined. FITC = O=C1OC2(c3ccc(O)cc3Oc3cc(O)ccc32)c2ccc(NC(=S)*)cc21; Cys(Me) = CSC[C@H](N[*:1])C(=O)[*:2]; AEA = NCCOCC(=O)O

Legend:
[1] = test system: areas of localised fibrosis in the myocardium; experiment: Ex vivo binding to infarcted mouse myocardium (LAD occlusion); details: ex vivo sections of infarcted mouse hearts 6 weeks after LAD ligation
Description: To assess whether labelled T-peptide can bind to fibrotic myocardium, a mouse model of myocardial infarction (via left anterior descending coronary artery (LAD) occlusion) was used. This model reflects a very defined area of fibrosis in the infarct zone.
Mice were anaesthetised, the LAD ligated with a suture, and the thorax closed. After 60 mins the suture was removed. After 6 weeks and the development of fibrosis, parts of the infarcted hearts were sectioned and incubated with the T-peptide-FITC and control (s)-peptide-FITC constructs.

[2] = test system: unstable plaque in the mouse carotid artery; experiment: Ex vivo binding to frozen sections of tandem stenosis mouse carotid unstable plaques; details: 0.1 mg/ml conjugate, 60 minutes, FITC channel fluorescence microscopy
Description: (§1) Conjugates of T-peptide (TLTYTWS)-FITC (Alexa 488) and control peptide (Con-peptide)-FITC were commercially synthesized (GL Biochem, Shanghai China) using solid phase peptide synthesis, as described above. The concentration of the synthesized peptide-FITC conjugates was 1 mg/ml.
(§2) At 12 weeks of age and 6 weeks after commencement of high fat diet, ApoE−/− mice (C57BL/6J background) were anaesthetized by intraperitoneal injection of a mixture of ketamine (100 mg/kg) and xylazine (10 mg/kg). An incision was made in the neck and the right common carotid artery exposed by dissecting away circumferential connective tissue. A tandem stenosis with 150 μm outer diameter was introduced with the distal stenosis placed 1 mm from the carotid artery bifurcation and the proximal stenosis 3 mm from the distal stenosis. A 6-0 blue braided polyester fibre suture was tied around the carotid artery and a 150 μm needle to achieve the stenosis diameter of 150 μm and the needle was subsequently removed after the suture was secured. The incision wound was sutured close and the mice resumed their high fat diet. […]
(§3) Frozen […] tissue sections of tandem stenosis mouse carotid unstable plaques and aortic arch stable plaques on glass slides were thawed for 30 minutes at room temperature. […] The slides were then examined by fluorescence microscopy (IX81 Olympus microscope) in the FITC 488 nm channel.

[3] = test system: unstable plaque (right common carotid artery segment 1); experiment: In vivo binding to unstable plaque after intravenous administration to tandem stenosis mice; set-up: species or system mouse; details: tandem stenosis ApoE-/- mice, bolus plus infusion into jugular vein, tissue taken 30 minutes after administration
Description: (§4) The T-peptide-FITC (Alexa 488) and its control scrambled peptide Con-peptide-FITC were commercially synthesized (GL Biochem. Shanghai China) using solid phase peptide synthesis, as described elsewhere herein. The concentration of the synthesized peptides were all at 1 mg/ml,
(§5) Each mouse with an average weight of 25 g, would receive […] of T-peptide-FITC or […] of Con-peptide-FITC diluted 1:2 to give concentration of 0.5 mg/ml, which works out to be […] body weight, […] of the diluted peptide will be given as a bolus into the left external jugular vein and the remaining […] by infusion at a rate of […] using an infusion pump connected to a plastic catheter inserted into the left external jugular vein. The method of bolus dose followed by infusion is to optimize the blood level and duration of the circulating peptide to enhance plaque entry and vascular tissue retention of the peptide, since the small molecular weight of the peptide is at risk of rapid clearance through the kidneys. […]
(§6) The frozen section slides were thawed for 30 minutes at room temperature before examination under the fluorescence microscope (IX81 Olympus microscope) in the FITC 488 nm channel.

[4] = test system: MMP2-predigested collagen IV; experiment: In vitro binding to MMP2-predigested collagen IV coated glass slides; set-up: species or system human; details: for FITC signal on MMP2-predigested collagen IV coated glass slide: 0.1 mg/ml, room temperature
Description: (§7) T-peptide-FITC (Alexa 488) and control peptide-FITC conjugates, as well as the unlabelled T-peptide-LPETG peptide, were commercially synthesized (GL Biochem. Shanghai, China) using solid phase peptide synthesis, as described elsewhere herein. The concentration of the synthesized peptides were all at 1 mg/ml.
Binding to MMP2 digested collagen IV Collagen IV was applied to glass slides coated with polylysine. 1. Polylysine (MW of 30,000-70,000) at 0.1 mg/ml in 0.15 M borate buffer (pH 8.3) was prepared and filtered with […] pore size membrane syringe filter (Millex® Syringe Filter, Millipore). 2. Collagen IV (collagen type IV from human fibroblast culture, Sigma. Aldrich) was diluted to 1:10 with Hank's Balanced Salt Solution (HBSS) to 0.04 mg/ml. 3. For MMP2 digestion, Active recombinant human MMP2 enzyme (expressed in CHO cells) was purchased from Calbiochem. MMP2 stock solution was diluted with PBS to create 0.01 μg/μl MMP2 concentration according to manufacturer's recommendations. 4. For T-peptide-HTC testing using added MMP2, 20 μl of polylysine was spotted on several glass slides and left overnight at room temperature to dry. This forms a coating base for collagen to adhere to subsequently. 5. To predigest some collagen IV with MMP2, 3 μl of (0.1 mg/ml ) MMP2 was mixed with 35.8 μl of diluted collagen IV solution with 1.2 μl of 100 mM CaCl2 (3 mM Calcium final concentration) in an Eppendorf tube and incubated at 37° C. shaking at 600 rpm in an Eppendorf Thermomixer for 2 hours. 6. To create intact collagen IV coated slides, […] of diluted collagen IV solution was dropped onto the dried polylysine spot on the slide. 7. To create MMP2 predigested collagen IV coated slides, […] predigested collagen IV was dropped onto the dried polylysine spot on the glass slide. 8. The slides with collagen IV were dried uncovered overnight before testing. 9. Next day, […] of T-peptide-FITC (0.1 mg/ml) was added to the MMP2 predigested collagen spot, […] of T-peptide-FITC (0.1 mg/ml) was added to the intact collagen slide, and […] Control peptide-FITC (0.1mg/ml) was added to the MMP2 predigested collagen slide and the slides were incubated in a covered humidified box with wet paper towels at room temperature for 60 minutes. 10. For the ‘blocked epitope’ slide, […] of unlabelled T-peptide-LPETG (0.1 mg/ml) was added to the MMP2 predigested collagen slide and incubated similarly for 60 minutes. This step binds the epitopes present on the collagen IV and prevents further binding with the FITC labelled T-peptide. Next, […] of T-peptide-FITC (0.1 mg/ml) was added to the same area and incubated for 60 minutes. 11. All the treated slides were examined under fluorescence microscopy (IX81 Olympus microscope).

intact collagen IV = experiment: In vitro binding to undigested collagen IV coated glass slides; set-up: species or system human; details: 0.1 mg/ml, 60 minutes, room temperature
Description: as §7
Binding to MMP2 digested collagen IV Collagen IV was applied to glass slides coated with polylysine. 1. Polylysine (MW of 30,000-70,000) at 0.1 mg/ml in 0.15 M borate buffer (pH 8.3) was prepared and filtered with […] pore size membrane syringe filter (Millex® Syringe Filter, Millipore). 2. Collagen IV (collagen type IV from human fibroblast culture, Sigma. Aldrich) was diluted to 1:10 with Hank's Balanced Salt Solution (HBSS) to 0.04 mg/ml. 3. For MMP2 digestion, Active recombinant human MMP2 enzyme (expressed in CHO cells) was purchased from Calbiochem. MMP2 stock solution was diluted with PBS to create 0.01 μg/μl MMP2 concentration according to manufacturer's recommendations. 4. For T-peptide-HTC testing using added MMP2, 20 μl of polylysine was spotted on several glass slides and left overnight at room temperature to dry. This forms a coating base for collagen to adhere to subsequently. 5. […] All the treated slides were examined under fluorescence microscopy (IX81 Olympus microscope).

[5] = test system: stable aortic arch plaques; experiment: Ex vivo binding to frozen sections of stable aortic arch plaques; set-up: species or system mouse; details: 0.1 mg/ml conjugate, 60 minutes, FITC channel fluorescence microscopy
Description: as §1, §2, §3

[6] = test system: stable plaque (aortic arch segment 5); experiment: In vivo binding to stable aortic arch plaque after intravenous administration to tandem stenosis mice; set-up: species or system mouse; details: tandem stenosis ApoE-/- mice, bolus plus infusion into jugular vein, tissue taken 30 minutes after administration
Description: as §4, §5, §6

binding to MMP2-predigested collagen IV fibres with additional amino acids at the N terminus [4] | blocking of T-peptide-FITC binding to MMP2-predigested collagen IV ([4]; preincubation 0.1 mg/ml, 60 minutes) | Substance | binding to fibrotic myocardium [1] | binding to unstable plaque (fluorescent signal) [2] | binding to the unstable plaque following intravenous administration [3] | FITC signal on MMP2-predigested collagen IV coated glass slide ([4]; 60 minutes) | FITC signal on undigested collagen IV coated glass slide (intact collagen IV) | binding to stable plaque (fluorescent signal) [5] | binding to the stable aortic arch plaque after intravenous administration [6] | FITC signal on MMP2-predigested collagen IV slide preincubated with unlabelled T-peptide ([4]; blocked epitope slide: unlabelled T-peptide-LPETG 0.1 mg/ml 60 minutes, then T-peptide-FITC 0.1 mg/ml 60 minutes)
– | – | H-GLGYGWSGK(FITC)-OH (SMILES CC(C)C[C@H](NC(=O)CN)C(=O)NCC(=O)N[C@@H](Cc1ccc(O)cc1)C(=O)NCC(=O)N[C@@H](Cc1c[nH]c2ccccc12)C(=O)N[C@@H](CO)C(=O)NCC(=O)N[C@@H](CCCCNC(=S)Nc1ccc2c(c1)C(=O)OC21c2ccc(O)cc2Oc2cc(O)ccc21)C(=O)O) [control peptide-FITC conjugate, reference compound] | no evidence of binding | no significant binding | no evidence of binding | no FITC signal | – | – | – | –
– | – | H-TLTYTWSGK(FITC)-OH (SMILES CC(C)C[C@H](NC(=O)[C@@H](N)[C@@H](C)O)C(=O)N[C@H](C(=O)N[C@@H](Cc1ccc(O)cc1)C(=O)N[C@H](C(=O)N[C@@H](Cc1c[nH]c2ccccc12)C(=O)N[C@@H](CO)C(=O)NCC(=O)N[C@@H](CCCCNC(=S)Nc1ccc2c(c1)C(=O)OC21c2ccc(O)cc2Oc2cc(O)ccc21)C(=O)O)[C@@H](C)O)[C@@H](C)O) [T-peptide-FITC conjugate] | binds specifically to areas of localised fibrosis in the myocardium | strong fluorescent signal within the lumen | strong binding | strong FITC signal | no FITC signal | no fluorescent signal within the vascular lumen | no binding | no significant FITC signal
did not reduce or eliminate binding | – | GGGWWSSASPAATLTYTWSGLPAPASPA-eeeeeeee-(Aop)-PLGC(Me)AG-rrrrrrrrr-GAGAPAC (GGGWWSSASPAATLTYTWSGLPAPASPA[dE][dE][dE][dE][dE][dE][dE][dE][AEA]PLG[Cys(Me)]AG[dR][dR][dR][dR][dR][dR][dR][dR][dR]GAGAPAC) [GGG-T-peptide-ACPP-cysteine] | – | – | – | – | – | – | – | –
– | blocked binding | HTLTYTWSGGGLPETGGHHHHHH-OH [T-peptide-LPETG] | – | – | – | – | – | – | – | –
